Like-named read-outs stand apart in the source and are kept apart here.
Key:
[1] = target: T1, recombinant human NF-kappaB-inducing kinase (NIK/MAP3K14) (Homo sapiens, UniProt Q99558); assay: Biological Assay B: inhibition of auto-phosphorylation of recombinant human NIK/MAP3K14 (AlphaScreen), performed at 2 locations; type: biochemical; details: averaged values
Procedure, shortened: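 Run at two separate sites: 1 h, 25° C. reactions containing 0.2 nM GST-NIK, 25 microM ATP and compound (1% DMSO) in Tris pH 7.5/MgCl2 buffer. Phosphorylation detected via anti-phospho-IKK Ser176/180 antibody with AlphaScreen beads; IC50 fitted to % inhibition.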

[2] = test system: P-IKKα levels in L363 (NIK translocated multiple myeloma) cells; assay: Biological Assay C: effect of compounds on P-IKKα levels in L363 (NIK translocated multiple myeloma) cells, performed at 2 locations; type: cell-based, human; details: averaged values
Description: Effect of Compounds on P-IKKα Levels in L363 (NIK Translocated Multiple Myeloma) Cells
All compounds tested were dissolved in DMSO and further dilutions were made in culture medium. Final DMSO concentration was 1% (v/v) in cell assays. The human L363 cells (ATCC) were cultured in RPMI 1640 medium supplemented with GlutaMax and 10% fetal calf serum (PAA). Cells were routinely maintained at densities of 0.2×10^6 cells per ml-1×10^6 cells per ml at 37° C. in a humidified 5% CO2 atmosphere. Cells were passaged twice a week splitting back to obtain the low density. Cells were seeded in 96 well plates (Nunc 167008) at 2×10^6 per ml media in a volume of 75 μl per well plus 25 μl […] recombinant human B-cell activating factor (BAFF/BLyS/TNFSF13B). Seeded cells were incubated at 37° C. in a humidified 5% CO2 atmosphere for 24 hr. Drugs and/or solvents were added (20 μl) to a final volume of 120 μl. Following 2 hr treatment plates were removed from the incubator and cell lysis was achieved by the addition of 30 μl 5× lysis buffer followed by shaking on a plate shaker at 4° C. for 10 min. At the end of this incubation lysed cells were centrifuged at 800×g for 20 min at 4° C. and the lysate was assessed for P-IKKα levels by sandwich immuno-assay carried out in anti-rabbit antibody coated Mesoscale plates. Within an experiment, the results for each treatment were the mean of 2 replicate wells. For initial screening purposes, compounds were tested using an 8 point dilution curve (serial 1:3 dilutions). For each experiment, controls (containing MG132 and BAFF but no test drug) and a blank incubation (containing MG132 and BAFF and 1 μM ADS125117, a test concentration known to give full inhibition) were run in parallel. The blank incubation value was subtracted from all control and sample values. To determine the IC50 a sigmoidal curve was fitted to the plot of % inhibition of control P-IKKα levels versus Log10 compound concentration.
Assay C was performed at 2 different locations.
(§1) Data for the compounds of the invention in the above assays are provided in Table A (the values in Table are averaged values over all measurements on all batches of a compound; values as IC50 (nM)). (‘n.c.’ means not calculated: ‘Co.’ means compound)

[3] = target: T1, recombinant human NF-kappaB-inducing kinase (NIK/MAP3K14); assay: Biological Assay A: inhibition of recombinant human NF-kappaB-inducing kinase (NIK/MAP3K14) activity (MBP phosphorylation, Mesoscale); details: MSD MBP; averaged over all measurements on all batches; read-out: Assay A Biochemical (MSD MBP) IC50
Description: Pharmacological Part Biological Assay A Inhibition of Recombinant Human NF-kappaB-Inducing Kinase (NIK/MAP3K14) Activity
Assay buffer was 50 mM Tris pH 7.5 containing 1 mM EGTA (ethylene glycol tetraacetic acid), 1 mM DTT (dithiothreitol), 0.1 mM Na3VO4, 5 mM MgCl2, 0.01% Tween® 20. Assays were carried out in 384 well Mesoscale high binding plates which had been coated with myelin basic protein (MBP) and blocked with bovine serum albumin to prevent non-specific protein binding. All compounds tested were dissolved in dimethyl sulfoxide (DMSO) and further dilutions were made in assay buffer. Final DMSO concentration was 1% (v/v) in assays. Incubations consisted of compound (1% DMSO in control and blank wells), 25 μM […] (ATP), and 10 nM NIK/MAP3K14 substituting enzyme with buffer in the blank wells. Incubations were carried out for 1 h at 25° C. and were followed by washing and sequential incubation with rabbit anti-phospho-MBP and anti-rabbit Ig Sulfotag antibody before reading bound Sulfotag on a Mesoscale Discovery. Signal obtained in the wells containing blank samples was subtracted from all other wells and […] were determined by fitting a sigmoidal curve to % inhibition of control versus Log10 compound concentration.
as §1

[4] = Homo sapiens, L-363, location 2, L363 cells, P-IKKα levels, read-out: Assay C location 2 IC50

T1 sequence (Q99558 whole entry): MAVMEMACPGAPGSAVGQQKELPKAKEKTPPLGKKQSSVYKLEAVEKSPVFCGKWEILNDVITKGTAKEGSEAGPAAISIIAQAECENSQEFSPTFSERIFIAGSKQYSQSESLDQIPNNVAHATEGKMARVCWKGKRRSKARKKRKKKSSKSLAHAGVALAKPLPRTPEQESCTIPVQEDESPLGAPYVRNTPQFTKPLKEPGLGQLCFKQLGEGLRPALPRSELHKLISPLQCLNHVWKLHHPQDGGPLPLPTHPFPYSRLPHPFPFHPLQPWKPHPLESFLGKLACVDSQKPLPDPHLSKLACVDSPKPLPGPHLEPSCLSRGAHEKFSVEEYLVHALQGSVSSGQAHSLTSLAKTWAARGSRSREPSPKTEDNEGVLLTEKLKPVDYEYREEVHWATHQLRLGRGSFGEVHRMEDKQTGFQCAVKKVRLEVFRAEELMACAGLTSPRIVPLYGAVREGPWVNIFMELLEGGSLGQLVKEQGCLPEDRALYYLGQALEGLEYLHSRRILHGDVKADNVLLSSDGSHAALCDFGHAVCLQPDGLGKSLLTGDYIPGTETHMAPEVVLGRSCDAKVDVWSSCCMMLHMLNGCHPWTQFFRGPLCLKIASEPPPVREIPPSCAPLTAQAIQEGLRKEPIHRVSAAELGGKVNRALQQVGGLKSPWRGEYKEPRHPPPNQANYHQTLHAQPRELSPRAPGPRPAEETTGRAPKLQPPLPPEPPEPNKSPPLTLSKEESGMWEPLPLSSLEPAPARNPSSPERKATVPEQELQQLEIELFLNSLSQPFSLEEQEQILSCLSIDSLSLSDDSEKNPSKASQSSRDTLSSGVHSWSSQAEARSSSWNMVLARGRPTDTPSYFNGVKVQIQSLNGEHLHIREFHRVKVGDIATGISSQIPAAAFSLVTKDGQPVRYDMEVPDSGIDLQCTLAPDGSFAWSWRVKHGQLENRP

Row | Compound | IC50 [2, 4] | IC50 [3] | further results
1 | COc1cc(C(=O)NC2CCOCC2)ccc1Nc1nccc(-c2cnc3c(c2)C(C)(CO)CN3)n1 (stereo not drawn) [Compound 1] | 129 nM | 12 nM | IC50 ([1]; location 2, AlphaScreen auto-phosphorylation, read-out: Assay B location 2 IC50): 2.6 nM
2 | COc1cc(Nc2nccc(-c3cnc4c(c3)C(C)(C)CN4)n2)c(C)c(C(=O)NC2CN(C)C2)c1 [Compound 51] | 112 nM | 6.9 nM | 
3 | Cc1cc(C(=O)N2CCC(CCO)CC2)ccc1Nc1nccc(-c2cnc3c(c2)C(C)(C)CN3)n1 [Compound 53] | 174 nM | 4.1 nM | 
4 | Cc1cc(C(=O)N2CCOCC2)ccc1Nc1nccc(-c2cnc3c(c2)C(C)(C)CN3)n1 [Compound 78] | > 10000 nM | 16.6 nM | 
5 | CN1CCC(NC(=O)c2ccc(Nc3nccc(-c4cnc5c(c4)C(C)(C)CN5)n3)c(C(F)(F)F)c2)CC1 [Compound 91] | > 10000 nM | 339 nM | 
6 | CC1(C)CNc2ncc(-c3ccnc(Nc4ccc(C(=O)NC5CCOCC5)cc4C(F)(F)F)n3)cc21 [Compound 94] | ~10000 nM | 347 nM | 
7 | Cc1cc(C(=O)N2CCC(C(C)(C)O)CC2)ccc1Nc1nccc(-c2cnc3c(c2)C(C)(C)CN3)n1 [Compound 98] | 93.3 nM | 13.5 nM | 
8 | Cc1cc(C(=O)N2CCC(C#N)CC2)ccc1Nc1nccc(-c2cnc3c(c2)C(C)(C)CN3)n1 [Compound 99] | 144 nM | 7.4 nM | 
9 | Cc1cc(C(=O)N2CCS(=O)(=O)CC2)ccc1Nc1nccc(-c2cnc3c(c2)C(C)(C)CN3)n1 [Compound 100] | 174 nM | 6.6 nM | 
10 | CN1CCC(NC(=O)c2ccc(Nc3nccc(-c4cnc5c(c4)C(C)(C)CN5)n3)c(Cl)c2)CC1 [Compound 103] | 3090 nM | 155 nM | 
11 | CC1(C)CNc2ncc(-c3ccnc(Nc4ccc(C(=O)NC5CCOCC5)cc4Cl)n3)cc21 [Compound 104] | 398 nM | 61.7 nM | 
12 | COc1cc(Nc2nccc(-c3cnc4c(c3)C(C)(C)CN4)n2)c(C)c(C(=O)NC2CCOCC2)c1 [Compound 105] | 436 nM | 30.2 nM | 
13 | COCCNC(=O)c1cc(OC)cc(Nc2nccc(-c3cnc4c(c3)C(C)(C)CN4)n2)c1C [Compound 106] | 95.5 nM | 15.9 nM | 
14 | COc1cc(Nc2nccc(-c3cnc4c(c3)C(C)(C)CN4)n2)c(C)c(C(=O)N2CCC(O)CC2)c1 [Compound 107] | 72.4 nM | 13.5 nM | 
15 | COc1cc(Nc2nccc(-c3cnc4c(c3)C(C)(C)CN4)n2)c(C)c(C(=O)N2CCOCC2)c1 [Compound 108] | 102 nM | 15.1 nM | 
16 | CC1(C)CNc2ncc(-c3ccnc(Nc4ccc(C(=O)NC5CCOCC5)cc4C(F)F)n3)cc21 [Compound 110] | 2340 nM | 129 nM | 
17 | COc1c(Nc2nccc(-c3cnc4c(c3)C(C)(C)CN4)n2)cccc1C(=O)N1CCOCC1 [Compound 112] |  | 417 nM | 
18 | COc1c(Nc2nccc(-c3cnc4c(c3)C(C)(C)CN4)n2)cccc1C(=O)NC1CCOCC1 [Compound 113] |  | 288 nM | 
19 | COc1c(Nc2nccc(-c3cnc4c(c3)C(C)(C)CN4)n2)cccc1C(=O)N1CCC(O)CC1 [Compound 114] | > 10000 nM | 251 nM | 
20 | COc1cc(C#N)ccc1Nc1nccc(-c2cnc3c(c2)C(C)(C)CN3)n1 [Compound 116] | 3160 nM | 309 nM | 
21 | Cc1cc(N2CCOCC2)ccc1Nc1nccc(-c2cnc3c(c2)C(C)(C)CN3)n1 [Compound 117] | > 10000 nM | 162 nM | 
22 | COc1ccc(S(C)(=O)=O)cc1Nc1nccc(-c2cnc3c(c2)C(C)(C)CN3)n1 [Compound 119] | 5500 nM | 295 nM | 
23 | Cc1cc(C(=O)NC2CCOCC2)ccc1Nc1nccc(-c2cnc3c(c2)C(C)(CCO)CN3)n1 (stereo not drawn) [Compound 124] | 2750 nM | 7.8 nM | 
24 | CC1(C)CNc2ncc(-c3ccnc(Nc4ccc(C(=O)N5CCC(C#N)CC5)cc4OC(F)F)n3)cc21 [Compound 128] | 191 nM | 7.9 nM | 
25 | COC1CCN(C(=O)c2ccc(Nc3nccc(-c4cnc5c(c4)C(C)(C)CN5)n3)c(OC(F)F)c2)CC1 [Compound 129] | 229 nM | 15.9 nM | 
26 | COC1CCN(C(=O)c2ccc(Nc3nccc(-c4cnc5c(c4)C(C)(CO)CN5)n3)c(C)c2)CC1 (stereo not drawn) [Compound 133] |  | 5.8 nM | IC50 ([2]; location 2, L363 cells, P-IKKα levels, read-out: Assay C location 2 IC50): 129 nM
27 | COc1cc(S(C)(=O)=O)c(F)cc1Nc1nccc(-c2cnc3c(c2)C(C)(C)CN3)n1 [Compound 342] |  |  | IC50 ([1]; location 1, NIK auto-phosphorylation, AlphaScreen, read-out: Assay B location 1 IC50): 7.9 nM; IC50 ([1]; location 2, NIK auto-phosphorylation, AlphaScreen, read-out: Assay B location 2 IC50): 4.6 nM; IC50 ([2]; Homo sapiens, L-363, 2 h, location 1, P-IKKα levels in L363 cells, 2 hr treatment, read-out: Assay C location 1 IC50): 155 nM

Now from value to compound, other results behind:

Row | IC50 [2, 4] | IC50 [3] | Compound | further results
28 | 75.9 nM | 8.3 nM | CC(=O)NCc1ccc(Nc2nccc(-c3cnc4c(c3)C(C)(C)CN4)n2)c(Br)c1 [Compound 63] | 
29 | 407 nM | 13.5 nM | CCC(=O)NCc1cccc(Nc2nccc(-c3cnc4c(c3)C(C)(C)CN4)n2)c1C [Compound 64] | 
30 | 617 nM | 24 nM | Cc1c(CNC(=O)C(C)C)cccc1Nc1nccc(-c2cnc3c(c2)C(C)(C)CN3)n1 [Compound 65] | 
31 | 363 nM | 10.7 nM | COCC(=O)NCc1cccc(Nc2nccc(-c3cnc4c(c3)C(C)(C)CN4)n2)c1C [Compound 66] | 
32 | 1660 nM | 45.7 nM | CC(=O)NCc1ccc(Nc2nccc(-c3cnc4c(c3)C(C)(C)CN4)n2)c(C(F)(F)F)c1 [Compound 67] | 
33 | 53.7 nM | 6.5 nM | CC(=O)NCc1ccc(Nc2nccc(-c3cnc4c(c3)C(C)(C)CN4)n2)c(Cl)c1 [Compound 72] | 
34 | 67.6 nM | 6.8 nM | CCC(=O)NCc1ccc(Nc2nccc(-c3cnc4c(c3)C(C)(C)CN4)n2)c(C)c1 [Compound 74] | 
35 | 135 nM | 12.3 nM | Cc1cc(CNC(=O)C(C)C)ccc1Nc1nccc(-c2cnc3c(c2)C(C)(C)CN3)n1 [Compound 75] | 
36 | 182 nM | 13.5 nM | COCC(=O)NCc1ccc(Nc2nccc(-c3cnc4c(c3)C(C)(C)CN4)n2)c(C)c1 [Compound 76] | 
37 | 126 nM | 56.2 nM | CC(=O)NCc1ccc(Nc2nccc(-c3cnc4c(c3)C(C)(C)CN4)n2)c(OC(F)(F)F)c1 [Compound 77] | 
38 | 646 nM | 39.8 nM | Cc1cc(C(=O)N2CC(C)(O)C2)ccc1Nc1nccc(-c2cnc3c(c2)C(C)(C)CN3)n1 [Compound 80] | 
39 | 2690 nM | 35.5 nM | CC(=O)NCc1ccc(Nc2nccc(-c3cnc4c(c3)C(C)(C)CN4)n2)c(F)c1 [Compound 83] | 
40 | ~6310 nM | 13.5 nM | CC(=O)NC(C)c1cccc(Nc2nccc(-c3cnc4c(c3)C(C)(C)CN4)n2)c1 (stereo not drawn) [Compound 96] | 
41 |  | ~501 nM | Cc1cc(C(=O)O)ccc1Nc1nccc(-c2cnc3c(c2)C(C)(C)CN3)n1 [Compound 97] | IC50 ([1]; location 1, AlphaScreen auto-phosphorylation, read-out: Assay B location 1 IC50): > 10000 nM
42 |  | 457 nM | Cc1cc(C#N)ccc1Nc1nccc(-c2cnc3c(c2)C(C)(C)CN3)n1 [Compound 115] | 
43 |  | > 10000 nM | COc1ccc(C)c(Nc2nccc(-c3cnc4c(c3)C(C)(C)CN4)n2)c1CNC(C)=O [Compound 135] | 

Source: patent US11236084B2, “Substituted azaindoline derivatives as NIK inhibitors” (Janssen Pharmaceutica NV, priority 2017, dated 2022)
